Assay results: patent US4185156A, “Peptides and acid addition salts thereof” (Zaidan Hojin Biseibutsu Kagaku Kenkyu Kai, priority 1977, dated 1980)

Tests used:
[1] = biological target: T1, aminopeptidase B (Rattus norvegicus, UniProt O09175); assay: Inhibitory activity against aminopeptidase B (modified Hopsu et al. method, arginine-β-naphthylamide substrate); format: biochemical; details: pH 7.0, 37° C., 30-minute reaction
T1 construct: an aminopeptidase B solution purified by using Sephadex G-100; from tissue; rat liver in the cited Hopsu et al. method (own knowledge)
T1 sequence (O09175 1-650): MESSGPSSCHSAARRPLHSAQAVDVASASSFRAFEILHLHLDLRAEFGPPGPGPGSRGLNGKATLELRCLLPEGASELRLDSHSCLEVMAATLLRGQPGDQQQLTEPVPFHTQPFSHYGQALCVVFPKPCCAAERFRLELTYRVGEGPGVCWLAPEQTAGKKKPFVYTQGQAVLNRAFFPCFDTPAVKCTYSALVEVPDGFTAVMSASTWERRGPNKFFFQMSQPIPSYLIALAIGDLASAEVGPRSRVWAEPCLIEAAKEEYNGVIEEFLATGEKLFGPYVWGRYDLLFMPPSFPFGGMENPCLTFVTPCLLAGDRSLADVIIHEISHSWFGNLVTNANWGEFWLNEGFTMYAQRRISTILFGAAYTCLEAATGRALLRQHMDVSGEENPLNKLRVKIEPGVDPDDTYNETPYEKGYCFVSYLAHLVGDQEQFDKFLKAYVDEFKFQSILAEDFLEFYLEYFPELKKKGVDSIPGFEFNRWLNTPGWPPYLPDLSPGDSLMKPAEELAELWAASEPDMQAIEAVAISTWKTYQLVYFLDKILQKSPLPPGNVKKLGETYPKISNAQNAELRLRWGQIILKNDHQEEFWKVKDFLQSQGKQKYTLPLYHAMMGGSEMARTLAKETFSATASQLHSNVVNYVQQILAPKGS
Description: A modified version of the Hopsu et al. method (V. K. Hopsu, K. K. Makinen and G. G. Glenner, Archives of Biochemistry and Biophysics 114, 557 (1966)) was used for determining the aminopeptidase B activity. A mixed solution (pH 7.0) prepared by adding 1.0 ml of 0.1 M tris-hydrochloride buffer and 0.7 ml of a solution containing the specimen to 0.3 ml of 0.1 mM arginine-β-naphthylamide was heated at 37° C. for 3 minutes and then added with 0.2 ml of an aminopeptidase B solution purified by using Sephadex G-100 (trademark for gelfiltrant composed of dextran derivative, manufactured by Pharmacia Fine Chemicals Inc.) according to the enzyme purification method of Hopsu et al. After 30-minute reaction at 37° C., 0.6 ml of 1.0 M acetate buffer (pH 4.2) containing Garnet GBC (o-aminoazotoluene diazonium salt) in concentration of 1.0 mg/ml and Tween 20 in concentration of 1.0% was added, and allowing the mixture to stand at room temperature for 15 minutes, absorbance (a) at 530 nm was measured. There was also measured absorbance (b) of the control using the buffer solution not containing the specimen. The aminopeptidase B inhibition percent was calculated from (b-a)/b×100.
Inhibition percentages at various specimen concentrations were measured according to the above-said testing method, and 50% inhibition (ID50) was induced therefrom.

[2] = tested on: lymphocytes from the peripheral blood of healthy canines; assay: Lymphocyte blastoid transformation with phytohemagglutinin (PHA), 3H-Thymidine incorporation; format: cell-based, canines (Beagle, Male); details: for 3H-Td.eta. incorporation (mean cpm ± SE): PHA + compound, canine lymphocytes, 72 hrs culture; for effect on lymphocyte blastoid formation with PHA (in words): summary of table 2
Description: Lymphocytes were prepared asptically from the peripheral blood of healthy canines (Beagle, Male) by gradient centrifugation of ficollsodium metriazoate. The lymphocytes (1×10^6 cells/ml) were cultured in RPMI-1640 medium with 10% fetal calf serum, antibiotic (Kanamycin 60μg/ml) and 15μg of phytohemagglutinin(PHA) at 37° C. in a humidified atomosphere of 5% CO2 and 95% air. After an incubation for 48 hrs, 2μCi of ^3 H-Thymidine was added to each dish, and the culture was continued for further 24 hrs to determine DNA synthesis. DNA synthesis was measured as ^3 H-Thymidine incorporation into acid in soluble materials.

[3] = biological target: T1, aminopeptidase B; details: prior art; cited from earlier work
[4] = tested on: leucine aminopeptidase; details: prior art; cited from earlier work
[5] = biological target: T2, Bleomycin hydrolase (Homo sapiens, UniProt Q13867); details: prior art; cited from earlier work
T2 sequence (Q13867 1-455): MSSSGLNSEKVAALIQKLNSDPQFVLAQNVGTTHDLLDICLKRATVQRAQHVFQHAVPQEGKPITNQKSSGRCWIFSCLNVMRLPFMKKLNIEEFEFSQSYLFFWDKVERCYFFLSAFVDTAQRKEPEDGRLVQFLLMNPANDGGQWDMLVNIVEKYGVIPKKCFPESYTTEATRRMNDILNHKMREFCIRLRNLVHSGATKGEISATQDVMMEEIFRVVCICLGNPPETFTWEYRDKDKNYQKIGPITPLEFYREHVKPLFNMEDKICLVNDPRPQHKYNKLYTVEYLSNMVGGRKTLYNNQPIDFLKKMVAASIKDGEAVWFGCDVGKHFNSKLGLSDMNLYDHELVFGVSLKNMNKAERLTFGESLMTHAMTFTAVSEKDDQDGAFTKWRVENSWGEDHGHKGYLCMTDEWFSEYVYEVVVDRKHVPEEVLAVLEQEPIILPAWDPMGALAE

IC50 ([1]; read-out: ID50 (50% inhibition of aminopeptidase B) (converted))	Structure (SMILES)	ID50 (50% inhibition of aminopeptidase B) [1]	3H-Td.eta. incorporation (mean cpm ± SE) ([2]; dose 0.1 μg)	3H-Td.eta. incorporation (mean cpm ± SE) ([2]; dose 1.0 μg)	3H-Td.eta. incorporation (mean cpm ± SE) ([2]; dose 10.0 μg)	effect on lymphocyte blastoid formation with PHA (in words) [2]	inhibitory activity against aminopeptidase B (in words) [3]	inhibitory activity against leucine aminopeptidase (in words) [4]	inhibitory activity against Bleomycin hydrolase (in words) [5]
	N=C(N)NCCC[C@H](NC(=O)[C@@H](O)[C@H](N)Cc1ccc(O)cc1)C(=O)O [Example 2, (2S, 3R)-3-amino-2-hydroxy-4-p-hydroxyphenylbutanoyl-(S)-arginine diacetate]	0.005 μ g/ml	23113 ± 1236 cpm	21357 ± 578 cpm	20397 ± 304 cpm	enhance the lymphocyte blastoid formation with PHA			
	Cl.Cl.N=C(N)NCCC[C@H](NC(=O)[C@H](O)[C@H](N)Cc1ccccc1Cl)C(=O)O (racemic) [Example 4, (2RS, 3RS)-3-amino-2-hydroxy-4-o-chlorophenylbutanoyl-(S)-arginine dihydrochloride]	0.14 μ g/ml							
324 nM	CC(C)C[C@H](NC(=O)[C@@H](O)[C@H](N)Cc1ccccc1)C(=O)O [Bestatin, (2S, 3R)-3-amino-2-hydroxy-4-phenylbutanoyl-(S)-leucine, reference compound]		19450 ± 189 cpm	16173 ± 631 cpm	18683 ± 71 cpm	enhance the lymphocyte blastoid formation with PHA	strong inhibitory activity	strong inhibitory activity	strong inhibitory activity
	Cl.N=C(N)NCCC[C@H](NC(=O)[C@@H](O)[C@H](N)Cc1ccccc1)C(=O)O [Example 1, (2S, 3R)-3-amino-2-hydroxy-4-phenylbutanoyl-(S)-arginine hydrochloride]	0.03 μ g/ml	17278 ± 400 cpm	19940 ± 1412 cpm	19050 ± 1988 cpm	enhance the lymphocyte blastoid formation with PHA			
	CC(=O)O.CC(=O)O.Cc1ccc(CC(N)C(O)C(=O)NC(CCCN=C(N)N)C(=O)O)cc1 (racemic) [Example 3, (2RS, 3RS)-3-amino-2-hydroxy-4-p-methylphenylbutanoyl-(S)-arginine diacetate]	0.013 μ g/ml							
